Data taken from patent US8741886B2, “Baclofen and acamprosate based therapy of neurological disorders” (Pharnext, priority 2011, dated 2014).

How the values were obtained:
[1] = test system: rat primary cortical cells; assay: Toxicity of human Aβ1-42 peptide on primary cortical neuron cells: LDH release; type: cell-based; details: for protection of neurons from amyloid injury: 1 h pre-treatment, Estradiol 150 nM or BDNF 50 ng/mL
Method: Rat cortical neurons were cultured as described by Singer et al. (47). Briefly pregnant female rats of 15 days gestation were killed by cervical dislocation (Rats Wistar) and the foetuses were removed from the uterus. The cortex was removed and placed in ice-cold medium of Leibovitz (L15) containing 2% of Penicillin 10.000 U/ml and Streptomycin 10 mg/ml and 1% of bovine serum albumin (BSA). Cortexes were dissociated by trypsin for 20 min at 37° C. (0.05%). The reaction was stopped by the addition of Dulbecco's modified Eagle's medium (DMEM) containing DNasel grade II and 10% of foetal calf serum (FCS). Cells were then mechanically dissociated by 3 serial passages through a 10 ml pipette and centrifuged at 515×g for 10 min at +4° C. The supernatant was discarded and the pellet of cells was re-suspended in a defined culture medium consisting of Neurobasal supplemented with B27 (2%), L-glutamine (0.2 mM), 2% of PS solution and 10 ng/ml of BDNF. Viable cells were counted in a Neubauer cytometer using the trypan blue exclusion test. The cells were seeded at a density of 30 000 cells/well in 96 well-plates (wells were pre-coated with poly-L-lysine (10 μg/ml)) and were cultured at +37° C. in a humidified air (95%)/CO2 (5%) atmosphere.
Briefly, Aβ1-42 peptide was reconstituted in define culture medium at 40 μM (mother solution) and was slowly shaken at +37° C. for 3 days in dark. The control medium was prepared in the same conditions.
After 10 days of neuron culture, test compounds were solved in culture medium (+0.1% DMSO) and then pre-incubated with neurons for 1 hour before the Aβ1-42 application (in a final volume per culture well of 100 μl). One hour after test compound(s) incubation, 100 μl of Aβ1-42 peptide was added to a final concentration of 10 μM diluted in presence of drug(s), in order to avoid further test compound(s) dilutions. Cortical neurons were intoxicated for 24 hours. Three separate cultures were performed per condition, 6 wells per condition.
BDNF (50 ng/ml) and Estradiol-β (150 nM) were used as positive control and reference compounds respectively. Three separate cultures will be performed per condition, 12 wells per condition.
Estradiol-β at 150 nM was used as a positive control (FIG. 4).
Estradiol-β was solved in culture medium and pre-incubated for 1 h before the amyloid-β1-42 application.
The following conditions were assessed: • CONTROL PLAQUE: 12 wells/condition • Negative Control: medium alone+0.1% DMSO • Intoxication: amyloid-β1-42 (10 μM) for 24 h • Reference compound: Estradiol (150 nM) 1 hr. • DRUG PLATE: 6 wells/condition • Negative Control: medium alone+0.1% DMSO • Intoxication: amyloid-β1-42 (10 μM) for 24 h • Test compound(s): test compound(s)—1 hr followed by amyloid-β1-42 (10 μM) for 24 h Lactate Dehydrogenase (LDH) Activity Assay
24 hours after intoxication, the supernatant was taken off and analyzed with Cytotoxicity Detection Kit (LDH, Roche Applied Science, ref: 11644793001, batch: 11800300). This colorimetric assay for the quantification of cell toxicity is based on the measurement of lactate dehydrogenase (LDH) activity released from the cytosol of dying cells into the supernatant.
Data were expressed in percentage of control conditions (no intoxication, no amyloid=100%) in order to express the amyloid injury. All values were expressed as mean+/−SEM (s.e.mean) of the 3 cultures (n=6 wells per condition). Statistic analyses were done on the different conditions (ONE-WAY ANOVA followed by the Dunnett's test when it was allowed, Statview software version 5.0).

[2] = test system: mice injected i.c.v. with Aβ25-35 peptide; assay: Spontaneous alternation, Y-maze test, after i.c.v. Aβ25-35; type: in vivo; details: Acamprosate 32 μg/kg/day, Baclofen 480 μg/kg/day
Text: The Y-maze is made of grey polyvinylchloride. Each arm is 40 cm long, 13 cm high, 3 cm wide at the bottom, 10 cm wide at the top, and converging at an equal angle. […] An alternation is defined as entries into all three arms on consecutive occasions.

For `C[C@]12CC[C@@H]3c4ccc(O)cc4CC[C@H]3[C@@H]1CC[C@@H]2O` [Estradiol], the “protection of neurons from amyloid injury” value [1] was −94%.

With `COc1cc2c(cc1OC)C(=O)C(CC1CCN(Cc3ccccc3)CC1)C2` (centres unmarked) [Donepezil] the “protection of percentage of alternation (Y-maze), low doses with Donepezil” value ([2]; Donepezil 0.25 mg/kg/day) was 32% and the “effect on percentage of alternation (Y-maze), low doses (in words)” value ([2]; drugs alone: Donepezil 0.25 mg/kg/day) was “no significant effect”.

With `NCCCS(=O)(=O)O` [Homotaurine] the “prevention of Aβ1-42 intoxication by pre-treatment” value ([1]; 8 nM) was 99%.

B1: BDNF: BDNF (50 ng/ml) used as positive control for neuroprotection (protein, UniProt P23560 19-247, looked up)
Neurotrophic factor BDNF …: APMKEANIRGQGGLAYPGVRTHGTLESVNGPKAGSRGLTSLADTFEHVIEELLDEDQKVRPNEENNKDADLYTSRVMLSSQVPLEPPLLFLLEEYKNYLDAANMSMRVRRHSDPARRGELSVCDSISEWVTAADKKTAVDMSGGTVTVLEKVPVSKGQLKQYFYETKCNPMGYTKEGCRGIDKRHWNSQCRTTQSYVRALTMDSKKRIGWRFIRIDTSCVCTLTIKRGR
For B1, the “protection of neurons from amyloid injury” value [1] was −94%.
